The assay relates to cold exposed rat. Briefly: hypothermia in cold exposed rats after intracisternal injection (rectal/core temperature). The assay is classed as in vivo. As for the experimental part: Male Sprague-Dawley-CV rats weighing 180-200 grams were housed in temperature and humidity controlled quarters. The rats were fed a standard rat food ration and tap water ad libitum. After being anesthetized with ether, peptides were injected into the cisterna magna of each rat. Ten microliters of a peptide solution containing 1-1000 nanograms of the peptide were injected. Immediately following the injections, the animals were transferred to a cold room maintained at 4° C. Rectal temperatures were recorded with a thermo probe at 30 minute intervals following injection. All experiments were carried out in a randomized block design. Following analyses of variance, differences between the effect of the various peptides were determined. The peptides were dissolved in a buffer composed of 126 mM, NaCl, 6 mM KCl, 1 mM NaH2 PO4, 0.88 mM MgSo4, 1.45 mM CaCl2, and 25 mM HEPES pH 7.2.
Other peptides isolated from anuran skin, i.e., litorin, ranatensin and alytesin, are approximately 1%, 10% and 100% respectively as potent as the peptide described above to lower body temperature of the cold exposed rat.

We go through two molecules from patent publication US4207311A, “Peptides having analgesic and thermoregulative properties” (The Salk Institute for Biological Studies, priority 1977, dated 1980).

Square brackets hold non-standard residues; d marks the D form. Peptide text beside a SMILES is read from it. pGlu = O=C1CC[C@@H](C(=O)O)N1

As to `CSCC[C@H](NC(=O)[C@H](Cc1ccccc1)NC(=O)[C@H](Cc1c[nH]cn1)NC(=O)CNC(=O)[C@@H](NC(=O)[C@H](C)NC(=O)[C@H](Cc1c[nH]c2ccccc12)NC(=O)[C@H](CCC(N)=O)NC(=O)[C@@H]1CCCN1C(=O)[C@@H](NC(=O)[C@@H]1CCC(=O)N1)C(C)C)C(C)C)C(N)=O` [ranatensin] ([pGlu]VPQWAVGHFM-NH2), the “potency relative to the peptide of Example I to lower body temperature” value (cold exposed rat) is about 10%.
`CSCC[C@H](NC(=O)[C@H](CC(C)C)NC(=O)[C@H](Cc1cnc[nH]1)NC(=O)CNC(=O)[C@@H](NC(=O)[C@H](C)NC(=O)[C@H](Cc1c[nH]c2ccccc12)NC(=O)[C@H](CCC(N)=O)NC(=O)[C@H](CC(N)=O)NC(=O)CNC(=O)[C@H](CC(C)C)NC(=O)[C@H](CCCN=C(N)N)NC(=O)[C@H](CCC(N)=O)NC(=O)[C@@H]1CCC(=O)N1)C(C)C)C(N)=O` [the peptide of the invention]: the “potency relative to Neurotensin to produce hypothermia” value (cold exposed rat (4° C.), graded doses, core temperature 60 minutes following administration) is “at least 10^4 times”.
